# Results as given in PMC8092170 (Indian Journal of Pharmacology, 2021).
# Molecular target: T1, peroxisome proliferator-activated receptor gamma (PPARγ) (Homo sapiens, UniProt P37231)
# T1 sequence (P37231 223-505 limits assumed): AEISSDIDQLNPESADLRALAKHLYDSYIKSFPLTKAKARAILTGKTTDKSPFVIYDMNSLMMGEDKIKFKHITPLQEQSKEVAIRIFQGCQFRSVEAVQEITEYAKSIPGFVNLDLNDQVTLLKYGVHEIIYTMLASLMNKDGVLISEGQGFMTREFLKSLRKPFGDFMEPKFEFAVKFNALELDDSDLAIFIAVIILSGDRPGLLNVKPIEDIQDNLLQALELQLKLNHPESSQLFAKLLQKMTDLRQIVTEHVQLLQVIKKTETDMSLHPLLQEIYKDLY
# Assay: fluorescence polarization probe displacement
# Assay type: binding
smiles,measurement,value
O=c1c(-c2ccc(O)cc2)coc2cc(O)cc(O)c12 [genistein],IC50,23.9 µM
